{"source": "patent US10538561B2", "about": "“Peptide for treating inflammatory diseases” (priority 2015, dated 2020)", "key": {"Caspase-3 enzyme": {"tested_on": "Caspase-3 enzyme", "assay": "Caspase-3 assay", "assay_type": "cell-based, Human", "conditions": "HaCaT, 48 h", "protocol": "Cell lines: Human Keratinocytes (HaCaT); Test Item (TI): IS 181; Treatment regimen: Multiple additions (2)—48 hours; Concentration range: 100 μg/ml to 5000 μg/ml (Duplicate wells); Sera Condition: Medium containing 1% FBS. […] Cells were lysed and protein was estimated. The above lysates were processed further for Caspase-3 enzyme activity assay using colorimetric based method. Percentage induction of Caspase-3 enzyme activation with respect to untreated; Positive control: Anthralin. IS 181 led to induction of Caspase-3 enzyme activation in HaCaT cells at all the concentrations tested except at 100 μg/ml. […] (FIGS. 7A-7B)"}, "[1]": {"tested_on": "Human endothelial cells (EA.hy 926)", "assay": "DNA fragmentation in endothelial cells", "assay_type": "cell-based", "conditions": "for % induction of DNA fragmentation: EA.hy926, 48 h", "protocol": "Cell lines: Human endothelial cells (EA.Hy 926); test item: IS 181; treatment regimen: multiple additions (2)—48 hours; concentration range: 100 μg/ml to 5000 μg/ml (Duplicate wells); sera condition: medium containing 1% FBS. […] Cells were lysed and fragmented DNA was precipitated using PEG/NaCl solution. The fragmented DNA was incubated with 0.2 μg/ml of Hoechst 33258 dye and fluorescence was read at 360 ex/460 em. End point: Percentage induction of DNA fragmentation with respect to untreated. Positive control: anthralin. IS 181 led to induction of DNA fragmentation in Ea.hy.926 cells at all the concentrations tested. […] The overall effect of IS 181 on induction of DNA fragmentation with respect to untreated in Ea.hy.926 cells ranged from 15.09% to 64.15% (FIGS. 10A-10B and Table-10)."}, "TNF-α": {"tested_on": "TNF-α", "assay": "LPS stimulated TNF-α secretion in RAW264.7", "assay_type": "cell-based, Mouse", "conditions": "for TNF-α % decrease with respect to LPS / TNF-α Conc (pg/ml): RAW264.7 + LPS, 24 h", "protocol": "Effect on pro-inflammatory cytokines against LPS stimulation: TNF-α; IL-6; IL-1-β: Cell lines: Murine macrophage cell line (RAW264.7); test item: IS181; experimental steps: pretreatment of cells with TI for 2 hours; stimulation with LPS (100 ng/ml) for 24 hours; supernatant collection for cytokine analysis; concentration range: o.1 μg/ml-500 μg/ml (duplicate wells); Cytokines: TNF-α; IL-6; IL-1-β; Method of estimating cytokines: ELISA; positive control: dexamethasone.\nCell line: RAW264.7 (Mouse macrophages); TI treatment regimen: Pretreatment for 2 h; TI Concentration range: 0.1 μg/ml-500 μg/ml (duplicate wells); LPS stimulation: 100 ng/ml; Time point for supernatants collection: 24 h; Method of estimation: ELISA; Positive control: Dexamethasone"}, "TSLP": {"tested_on": "TSLP", "assay": "LPS+PMA stimulated TSLP secretion in HaCaT", "assay_type": "cell-based, Human", "conditions": "for TSLP % decrease with respect to LPS + PMA / TSLP Conc (pg/ml): HaCaT + LPS + PMA, 24 h", "protocol": "Effect on pro-inflammatory cytokines against TNF-α/LPS+PMA stimulation: TNF-α; IFN-γ; TARC; TSLP; IL-6; IL-8: Cell lines: Human keratinocytes (HaCaT); test item (TI); IS181; experimental steps: pre-treatment of cells with TI for 2 hours; stimulation with TNF-α: 20 ng/ml; stimulation with LPS+PMA-10 μg/ml LPS+40 ng/ml PMA; supernatant collection for cytokine analysis after 24 hours; concentration range: 0.1 μg/ml-100 μg/ml (duplicate wells); cytokines: TNF-α; IFN-γ; TARC; TSLP; IL-6; IL-8. Method of estimating cytokines: ELISA; positive control: dexamethasone.\nCell line: HaCaT (Human Keratinocytes); TI Treatment regimen: Pretreatment for 2 h; TI Concentration range: 0.1 μg/ml-100 μg/ml (duplicate wells); TNF-α stimulation: 20 ng/ml; LPS+PMA stimulation: 10 μg/ml LPS+40 ng/ml PMA; Time point for supernatants collection: 24 h; Method of estimation: ELISA; Positive control: Dexamethasone"}, "[2]": {"assay": "Cell viability of splenocytes (MTT)", "assay_type": "cell-based, mouse", "conditions": "mouse, mouse splenocytes, splenocytes, 24 h", "protocol": "(§1) Cell lines: mouse splenocytes; test item: IS181; treatment regimen: single addition—24 hours; concentration range: 10 μg/ml-5000 μg/ml.A) Identification of non-cytotoxic concentrations: splenocytes were treated with IS181 for 24 hours. Effect on cell viability was assessed by MTT assay. Concentrations leading to >75% cell viability were selected for IL-17 assay. B) IL-17 assay: splenocytes were treated with IS181 in presence of ConA stimulation for 24 hours. Supernatants were collected and stored at −20° C. till analysed. Levels of IL-17 were analysed in supernatants by ELISA. Percent inhibition of IL-17 secretion was calculated with reference to ConA treated levels. Positive control: curcumin."}, "mouse splenocytes": {"tested_on": "mouse splenocytes", "assay": "Cell viability of splenocytes (MTT)", "assay_type": "cell-based", "conditions": "splenocytes", "protocol": "as §1"}, "[3]": {"assay": "Maximum feasible concentration and formulation stability", "assay_type": "physicochemical", "protocol": "The solution stability of peptide IS 181 was performed in four different diluents at three different temperatures for 24 hours. Four different pre-formulations of concentration 10 mg/ml were prepared and formulation assay was performed at initial and […] at room temperature."}, "[4]": {"conditions": "10% v/v Propylene glycol in 0.9% NaCl (for IM& SC)"}}, "note": "Marks after values point to notes of the source that are not given here.", "data": [{"substance": "H-WVQRVVEKFLK-OH [IS181, H-Trp-Val-Gln-Arg-Val-Val-Glu-Lys-Phe-Leu-Lys-OH]", "values": [{"measurement": "Percentage induction of caspase-3 enzyme activation with respect to untreated", "setting": "Caspase-3 enzyme; 100 μg/ml", "result": "−20.37"}, {"measurement": "Percentage induction of caspase-3 enzyme activation with respect to untreated", "setting": "Caspase-3 enzyme; 500 μg/ml", "result": 7.41}, {"measurement": "Percentage induction of caspase-3 enzyme activation with respect to untreated", "setting": "Caspase-3 enzyme; 1000 μg/ml", "result": 29.63}, {"measurement": "Percentage induction of caspase-3 enzyme activation with respect to untreated", "setting": "Caspase-3 enzyme; 2000 μg/ml", "result": 50}, {"measurement": "% induction of DNA fragmentation", "setting": "[1]; 100 μg/ml", "result": 15.09, "unit": "%"}, {"measurement": "% induction of DNA fragmentation", "setting": "[1]; 500 μg/ml", "result": 22.64, "unit": "%"}, {"measurement": "% induction of DNA fragmentation", "setting": "[1]; 1000 μg/ml", "result": 64.15, "unit": "%"}, {"measurement": "% induction of DNA fragmentation", "setting": "[1]; 2000 μg/ml", "result": 56.60, "unit": "%"}, {"measurement": "% induction of DNA fragmentation", "setting": "[1]; 5000 μg/ml", "result": 22.64, "unit": "%"}, {"measurement": "overall effect on induction of DNA fragmentation with respect to untreated", "setting": "[1]; Ea.hy.926, 48 h, 100 μg/ml to 5000 μg/ml", "result": "15.09% to 64.15%"}, {"measurement": "TNF-α inhibition as compared to LPS stimulated levels", "setting": "TNF-α; RAW264.7", "result": "good extent of TNF-α and IL-6 inhibition"}, {"measurement": "TNF-α % decrease with respect to LPS", "setting": "TNF-α; 0.1 μ/ml", "result": 58.8, "unit": "%"}, {"measurement": "TNF-α Conc (pg/ml)", "setting": "TNF-α; 0.1 μ/ml", "result": "1190.3*** pg/ml"}, {"measurement": "TNF-α % decrease with respect to LPS", "setting": "TNF-α; 1 μ/ml", "result": 32.1, "unit": "%"}, {"measurement": "TNF-α Conc (pg/ml)", "setting": "TNF-α; 1 μ/ml", "result": "1960.5*** pg/ml"}, {"measurement": "TNF-α % decrease with respect to LPS", "setting": "TNF-α; 5 μ/ml", "result": 34.0, "unit": "%"}, {"measurement": "TNF-α Conc (pg/ml)", "setting": "TNF-α; 5 μ/ml", "result": "1906.1*** pg/ml"}, {"measurement": "TNF-α % decrease with respect to LPS", "setting": "TNF-α; 10 μ/ml", "result": 60.2, "unit": "%"}, {"measurement": "TNF-α Conc (pg/ml)", "setting": "TNF-α; 10 μ/ml", "result": "1149.0*** pg/ml"}, {"measurement": "TNF-α % decrease with respect to LPS", "setting": "TNF-α; 100 μ/ml", "result": 17.6, "unit": "%"}, {"measurement": "TNF-α Conc (pg/ml)", "setting": "TNF-α; 100 μ/ml", "result": "2379.2* pg/ml"}, {"measurement": "TNF-α % decrease with respect to LPS", "setting": "TNF-α; 500 μ/ml", "result": 38.4, "unit": "%"}, {"measurement": "TNF-α Conc (pg/ml)", "setting": "TNF-α; 500 μ/ml", "result": "1779.9*** pg/ml"}, {"measurement": "TNF-α secretion downregulated vs LPS stimulated levels", "setting": "TNF-α; RAW264.7, 0.1 μg/ml-500 μg/ml", "result": "17.6%-60.2%"}, {"measurement": "secretion of TSLP inhibited as compared to LPS+PMA stimulated cells", "setting": "TSLP; 0.1 μg/ml-100 μg/ml", "result": "46.4%-53.6%"}, {"measurement": "TSLP inhibition", "setting": "TSLP; HaCaT", "result": "good extent of TSLP and IL-8 inhibition"}, {"measurement": "TSLP % decrease with respect to LPS + PMA", "setting": "TSLP; 0.1 μg/ml", "result": 49.4, "unit": "%"}, {"measurement": "TSLP Conc (pg/ml)", "setting": "TSLP; 0.1 μg/ml", "result": "62.9*** pg/ml"}, {"measurement": "TSLP % decrease with respect to LPS + PMA", "setting": "TSLP; 1 μg/ml", "result": 47.9, "unit": "%"}, {"measurement": "TSLP Conc (pg/ml)", "setting": "TSLP; 1 μg/ml", "result": "64.7*** pg/ml"}, {"measurement": "TSLP % decrease with respect to LPS + PMA", "setting": "TSLP; 5 μg/ml", "result": 46.4, "unit": "%"}, {"measurement": "TSLP Conc (pg/ml)", "setting": "TSLP; 5 μg/ml", "result": "66.6*** pg/ml"}, {"measurement": "TSLP % decrease with respect to LPS + PMA", "setting": "TSLP; 10 μg/ml", "result": 53.6, "unit": "%"}, {"measurement": "TSLP Conc (pg/ml)", "setting": "TSLP; 10 μg/ml", "result": "57.6*** pg/ml"}, {"measurement": "TSLP % decrease with respect to LPS + PMA", "setting": "TSLP; 100 μg/ml", "result": 49.8, "unit": "%"}, {"measurement": "TSLP Conc (pg/ml)", "setting": "TSLP; 100 μg/ml", "result": "62.4*** pg/ml"}, {"measurement": "viability at 24 h, 10 μg/ml", "setting": "[2]; 10 μg/ml", "result": 97, "unit": "%"}, {"measurement": "viability at 24 h, 50 μg/ml", "setting": "[2]; 50 μg/ml", "result": 110, "unit": "%"}, {"measurement": "viability at 24 h, 100 μg/ml", "setting": "[2]; 100 μg/ml", "result": 110, "unit": "%"}, {"measurement": "viability at 24 h, 500 μg/ml", "setting": "[2]; 500 μg/ml", "result": 94.6, "unit": "%"}, {"measurement": "viability at 24 h, 1 mg/ml", "setting": "[2]; 1 mg/ml", "result": 79.4, "unit": "%"}, {"measurement": "viability at 24 h, 2 mg/ml", "setting": "[2]; 2 mg/ml", "result": 51.6, "unit": "%"}, {"measurement": "viability at 24 h, 5 mg/ml", "setting": "[2]; 5 mg/ml", "result": 25.6, "unit": "%"}, {"measurement": "cytotoxicity", "setting": "mouse splenocytes", "result": "< 25", "unit": "%"}, {"measurement": "cytotoxicity", "setting": "mouse splenocytes; 2 mg/ml", "result": 48.4, "unit": "%"}, {"measurement": "cytotoxicity", "setting": "mouse splenocytes; 5 mg/ml", "result": 74.4, "unit": "%"}, {"measurement": "MFC", "setting": "[3]; 0.9% NaCl (for IV)", "result": ">25.0", "unit": "mg/mL"}, {"measurement": "Stability of formulation at RT", "setting": "[3]; 0.9% NaCl (for IV)", "result": "Up to 24 hrs"}, {"measurement": "MFC", "setting": "[3]; [4]", "result": ">25.0", "unit": "mg/mL"}, {"measurement": "Stability of formulation at RT", "setting": "[3]; [4]", "result": "Up to 24 hrs"}]}]}
